Values quoted from earlier work in US10919926B2, “Compound or salt thereof, natural killer T cell activator, and pharmaceutical composition” (KEIO UNIVERSITY, priority 2016, dated 2021).

System: RBL-CD1d cells and NKT hybridoma 2E10 cells
Conditions: previously known

CCCCCCCCCCCCCCCCCCCCCCCCCC(=O)N[C@@H](CO[C@H]1O[C@H](CO)[C@H](O)[C@H](O)[C@H]1O)[C@H](O)[C@H](O)CCCCCCCCCCCCCC [α-GalCer, α-galactosylceramide]
cytokine-inducing capacity compared with β-GalCer and C19: higher than β-GalCer and C19
